The values that follow come from patent publication USRE47689E1, “Compounds for treating spinal muscular atrophy” (PTC Therapeutics, Inc., priority 2011, dated 2019).

The test system of data set [1] is SMN2 minigene (full length SMN2 minigene mRNA containing SMN2 exon 7). The experiment in a line: SMN2 minigene mRNA splicing RT-qPCR assay in cultured cells. The data set is classed as cell-based, human. Conditions: Homo sapiens, HEK293-H, read-out: EC1.5x for production of full length SMN2 mRNA. In short, it runs like this: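 Lysates → one-step RT-qPCR, minigene-specific primers (0.4 μM final) + GAPDH multiplex, 40 cycles. FL/GAPDH vs DMSO; EC1.5x, star-binned.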

For a further data set, the system named is Smn protein. As to the kind of experiment: Smn protein assay in cultured cells (SMN HTRF). The class given is cell-based, human. Conditions: 48 hours; for maximum fold (Fold) increase of Smn protein: SMA patient fibroblast cells, 7-point concentration data, fold increase relative to vehicle control (SMN HTRF); for EC1.5x (concentration giving 1.5-fold Smn protein increase): SMA Type 1 patient fibroblast cells (GM03813), 7-point concentration curve, SMN HTRF, concentration producing 1.5 times Smn protein vs DMSO vehicle control, read-out: EC1.5x for Smn protein expression. In short, it runs like this: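 Smn in SMA fibroblast lysates, measured by anti-SMN HTRF after 48 h compound exposure; EC1.5x from fold change over vehicle.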
A general note: TR-FRET usually uses a lanthanide donor and a delayed reading to cut background.

The mark [2] stands for this setting: HEK293H cells stably transfected with SMN2-A minigene, 24 hours, 7-point concentration curve, 1.5-fold relative to vehicle-treated cells.

Where two headings read alike, the source gives them in different places.

Consider `O=c1oc2cc(N3CCN(CCO)CC3)ccc2cc1-c1cn2cc(Cl)cnc2n1` [Compound 347, 3-(6-chloroimidazo[1,2-a]pyrimidin-2-yl)-7-[4-(2-hydroxyethyl)piperazin-1-yl]-2H-chromen-2-one], for which the melting point is 288 to 296 °C. Further, the EC (1.5-fold) in data set [1] (setting [2]) lay within 3 to 30 µM. Moreover, the “maximum fold (Fold) increase of Smn protein” value (“maximum fold (Fold) increase” for short) in the data set with Smn protein is “* (maximum fold increase of ≤1.2)”.
`Cc1cn2cc(-c3cc4ccc(CCCCN5CCC[C@@H]5CO)cc4oc3=O)nc2c(C)n1` [Compound 904, 3-(6,8-dimethylimidazo[1,2-a]pyrazin-2-yl)-7-{4-[(2R)-2-(hydroxymethyl)pyrrolidin-1-yl]butyl}-2H-chromen-2-one] returned a melting point of 147 to 151 °C. The EC (1.5-fold) in data set [1] (setting [2]) lay in the range of 0.1 to 0.3 µM. In the data set on Smn protein, the EC1.5x (concentration giving 1.5-fold Smn protein increase) lay within 300 to 1000 nM; the “maximum fold (Fold) increase” value is “**** (fold increase between >1.5 and ≤1.65)”.
`C[C@@H]1CN(c2ccc3cc(-c4nc5c(Cl)cccc5s4)c(=O)oc3c2)C[C@H](C)N1` [Compound 25, 3-(4-chloro-1,3-benzothiazol-2-yl)-7-[(3R,5S)-3,5-dimethylpiperazin-1-yl]-2H-chromen-2-one] had a melting point of 229 to 235 °C. For the same molecule, the EC (1.5-fold) in data set [1] (setting [2]) lay in the range of 0.3 to 1 µM. Further, the “maximum fold (Fold) increase” value with Smn protein was “* (maximum fold increase of ≤1.2)”.
`Cc1cn2cc(-c3cc4ccc(N5C[C@@H]6CCCN[C@@H]6C5)cc4oc3=O)nc2c(C)n1` [Compound 794, 3-(6,8-dimethylimidazo[1,2-a]pyrazin-2-yl)-7-[(4aS,7aS)-octahydro-6H-pyrrolo[3,4-b]pyridin-6-yl]-2H-chromen-2-one]: the melting point fell in the range of 246 to 253 °C. For the same molecule, the EC (1.5-fold) in data set [1] (setting [2]) is less than 0.1 µM. For the same molecule, in the data set with Smn protein, the EC1.5x (concentration giving 1.5-fold Smn protein increase) is less than 300 nM; the “maximum fold (Fold) increase” value is “**** (fold increase between >1.5 and ≤1.65)”.
In turn, `Cc1nc(Cl)cn2cc(-c3cc4ccc(N5CCN(C)CC5)cc4oc3=O)nc12` [Compound 764, 3-(6-chloro-8-methylimidazo[1,2-a]pyrazin-2-yl)-7-(4-methylpiperazin-1-yl)-2H-chromen-2-one] gave a melting point of 217 to 220 °C. The EC (1.5-fold) in data set [1] (setting [2]) was less than 0.1 µM. For the same molecule, the “maximum fold (Fold) increase” value in the data set on Smn protein is “** (fold increase between >1.2 and ≤1.35)”.
On to `Cc1cn2cc(-c3cc4ccc(N[C@@H]5CCNC5)cc4oc3=O)nc2c(C)n1` [Compound 564, 3-(6,8-dimethylimidazo[1,2-a]pyrazin-2-yl)-7-[(3R)-pyrrolidin-3-ylamino]-2H-chromen-2-one], for which the melting point was in the range of 290 to 300 °C. Moreover, the EC (1.5-fold) in data set [1] (setting [2]) was less than 0.1 µM. Moreover, in the data set with Smn protein, the EC1.5x (concentration giving 1.5-fold Smn protein increase) was less than 300 nM and the “maximum fold (Fold) increase” value is “***** (fold increase >1.65)”.
`C[C@@H]1CN(c2ccc3cc(-c4cn5cc(F)cc(F)c5n4)c(=O)oc3c2)C[C@H](C)N1` [Compound 523, 3-(6,8-difluoroimidazo[1,2-a]pyridin-2-yl)-7-[(3R,5S)-3,5-dimethylpiperazin-1-yl]-2H-chromen-2-one] yielded a melting point of 267 to 277 °C. Further, in data set [1] (setting [2]), the EC (1.5-fold) is 0.3 to 1 µM. In addition, the “maximum fold (Fold) increase” value in the data set on Smn protein was “** (fold increase between >1.2 and ≤1.35)”.
`Cc1cc(Cl)cn2cc(-c3cc4ccc(N5CCN(C)CC5)cc4oc3=O)nc12` [Compound 264, 3-(6-chloro-8-methylimidazo[1,2-a]pyridin-2-yl)-7-(4-methylpiperazin-1-yl)-2H-chromen-2-one] came in with a melting point of 238 °C. Further, the EC (1.5-fold) in data set [1] (setting [2]) is 1 to 3 µM. For the same molecule, the “maximum fold (Fold) increase” value in the data set with Smn protein is given as “* (maximum fold increase of ≤1.2)”.
In turn, `Cc1cn2cc(-c3cc4ccc(O[C@@H]5CCNC5)cc4oc3=O)nc2cn1` [Compound 594, 3-(6-methylimidazo[1,2-a]pyrazin-2-yl)-7-[(3R)-pyrrolidin-3-yloxy]-2H-chromen-2-one] yielded a melting point of 254 to 258 °C. In data set [1] (setting [2]), the EC (1.5-fold) was less than 0.1 µM. For the same molecule, in the data set with Smn protein, the EC1.5x (concentration giving 1.5-fold Smn protein increase) was less than 300 nM and the “maximum fold (Fold) increase” value is “***** (fold increase >1.65)”.
`C[C@@H]1CN(c2ccc3cc(-c4cn5cccc(Cl)c5n4)c(=O)oc3c2)CCN1C` [Compound 296, 3-(8-chloroimidazo[1,2-a]pyridin-2-yl)-7-[(3R)-3,4-dimethylpiperazin-1-yl]-2H-chromen-2-one]: the melting point is 199 to 202 °C. Besides, the EC (1.5-fold) in data set [1] (setting [2]) fell in the range of 0.1 to 0.3 µM. Also, the “maximum fold (Fold) increase” value in the data set with Smn protein is “*** (fold increase between >1.35 and ≤1.5)”.
Regarding `COc1cccc(-c2cc3ccc(N4CCN(C)CC4)cc3oc2=O)n1` [Compound 257, 3-(6-methoxypyridin-2-yl)-7-(4-methylpiperazin-1-yl)-2H-chromen-2-one], the melting point was in the range of 162 to 164 °C. Moreover, in data set [1] (setting [2]), the EC (1.5-fold) was 1 to 3 µM. For the same molecule, in the data set on Smn protein, the “maximum fold (Fold) increase” value is “* (maximum fold increase of ≤1.2)”.
`Cc1cn2cc(-c3cc4ccc(CCN5CCOCC5)cc4oc3=O)nc2c(C)n1` [Compound 886, 3-(6,8-dimethylimidazo[1,2-a]pyrazin-2-yl)-7-[2-(morpholin-4-yl)ethyl]-2H-chromen-2-one] registered a melting point of 180 to 184 °C. Also, the EC (1.5-fold) in data set [1] (setting [2]) lay in the range of 0.3 to 1 µM. Further, in the data set on Smn protein, the EC1.5x (concentration giving 1.5-fold Smn protein increase) was in the range of 300 to 1000 nM and the “maximum fold (Fold) increase” value is on record as “***** (fold increase >1.65)”.
In the case of `Cc1nccn2cc(-c3cc4ccc(N5CCN(C)CC5)cc4oc3=O)nc12` [Compound 551, 3-(8-methylimidazo[1,2-a]pyrazin-2-yl)-7-(4-methylpiperazin-1-yl)-2H-chromen-2-one], the melting point was 221 to 222 °C. The EC (1.5-fold) in data set [1] (setting [2]) was 0.3 to 1 µM. In the data set with Smn protein, the EC1.5x (concentration giving 1.5-fold Smn protein increase) was less than 300 nM; the “maximum fold (Fold) increase” value was “*** (fold increase between >1.35 and ≤1.5)”.
With `Cc1cn2cc(-c3cc4ccc(N5CCN6CCC[C@H]6C5)cc4oc3=O)cc2c(C)n1` [Compound 673, 3-(1,3-dimethylpyrrolo[1,2-a]pyrazin-7-yl)-7-[(8aS)-hexahydropyrrolo[1,2-a]pyrazin-2(1H)-yl]-2H-chromen-2-one], the melting point was 169 to 173 °C. In addition, in data set [1] (setting [2]), the EC (1.5-fold) was less than 0.1 µM. Further, in the data set with Smn protein, the EC1.5x (concentration giving 1.5-fold Smn protein increase) was less than 300 nM and the “maximum fold (Fold) increase” value is listed as “***** (fold increase >1.65)”.
`CCCN1CCN(c2ccc3cc(-c4cc5cc(C)ccn5n4)c(=O)oc3c2)CC1` [Compound 308, 3-(5-methylpyrazolo[1,5-a]pyridin-2-yl)-7-(4-propylpiperazin-1-yl)-2H-chromen-2-one] registered a melting point of 228 to 230 °C. In data set [1] (setting [2]), the EC (1.5-fold) was in the range of 3 to 30 µM. For the same molecule, the “maximum fold (Fold) increase” value with Smn protein is “** (fold increase between >1.2 and ≤1.35)”.
`Cc1cn2cc(-c3cc4ccc(N5CC[C@H](N(C)C)C5)cc4oc3=O)cc2c(C)n1` [Compound 697, 7-[(3S)-3-(dimethylamino)pyrrolidin-1-yl]-3-(1,3-dimethylpyrrolo[1,2-a]pyrazin-7-yl)-2H-chromen-2-one] had a melting point of 195 to 198 °C. Further, the EC (1.5-fold) in data set [1] (setting [2]) was less than 0.1 µM. For the same molecule, in the data set with Smn protein, the EC1.5x (concentration giving 1.5-fold Smn protein increase) is 300 to 1000 nM; the “maximum fold (Fold) increase” value is “*** (fold increase between >1.35 and ≤1.5)”.
Consider `Cc1nccn2cc(-c3cc4ccc(N5CCN[C@@H](C)C5)cc4oc3=O)cc12` [Compound 566, 7-[(3S)-3-methylpiperazin-1-yl]-3-(1-methylpyrrolo[1,2-a]pyrazin-7-yl)-2H-chromen-2-one], for which the melting point fell in the range of 184 to 186 °C. Moreover, the EC (1.5-fold) in data set [1] (setting [2]) was less than 0.1 µM. In the data set on Smn protein, the EC1.5x (concentration giving 1.5-fold Smn protein increase) is less than 300 nM; the “maximum fold (Fold) increase” value was “**** (fold increase between >1.5 and ≤1.65)”.
In turn, `O=c1oc2cc(N3CC4CCC(C3)N4)ccc2cc1-c1cn2cccc(Cl)c2n1` [Compound 526, 3-(8-chloroimidazo[1,2-a]pyridin-2-yl)-7-(3,8-diazabicyclo[3.2.1]oct-3-yl)-2H-chromen-2-one] registered a melting point of 213 to 216 °C. For the same molecule, in data set [1] (24 h), the EC (1.5-fold) lay within 0.1 to 0.3 µM. The “maximum fold (Fold) increase” value in the data set on Smn protein was “*** (fold increase between >1.35 and ≤1.5)”.
With `O=c1oc2cc(CN3CCC(O)C3)ccc2cc1-c1nc2c(Cl)cccc2s1` (stereo not drawn) [Compound 272, 3-(4-chloro-1,3-benzothiazol-2-yl)-7-[(3-hydroxypyrrolidin-1-yl)methyl]-2H-chromen-2-one], the melting point lay in the range of 188 to 192 °C. In data set [1] (setting [2]), the EC (1.5-fold) was in the range of 1 to 3 µM. Further, the “maximum fold (Fold) increase” value with Smn protein was “** (fold increase between >1.2 and ≤1.35)”.
Consider `Cc1cc([N+](=O)[O-])c2nc(-c3cc4ccc(N5C[C@@H](C)N[C@@H](C)C5)cc4oc3=O)cn2c1` [Compound 701, 7-[(3R,5S)-3,5-dimethylpiperazin-1-yl]-3-(6-methyl-8-nitroimidazo[1,2-a]pyridin-2-yl)-2H-chromen-2-one], for which the melting point is 290 to 300 °C. In data set [1] (setting [2]), the EC (1.5-fold) lay within 1 to 3 µM. Further, the “maximum fold (Fold) increase” value in the data set on Smn protein was “** (fold increase between >1.2 and ≤1.35)”.

One may read the melting point as the temperature, or range, at which the solid turns liquid.
